For the test, the system named is Venturia inaequalis. The test can be described thus: Apple tree scab field trial, preventive spray programme. As to conditions: for % of leaves attacked: apple tree Rome Beauty. The test is classed as in vivo. From the text: Apple Tree—Venturia inaequalis
The following fungicides are compared: • Pyrimethanil at the dose of 20 g/hl and mixtures. • fosetyl-Al+pyrimethanil at the doses of 50+20 and 100+20 g/hl applied in a plant protection mixture volume of 1 200 l/ha.
The products are applied to an apple tree (Rome Beauty variety) which is sensitive to Venturia inaequalis.
The various products to be studied are sprayed every 7, 10 or 13 days (9, 7 and 6 applications in total respectively) in a program of treatment starting on 28 Mar. 2001.
Scores are awarded for the disease (% foliar surface area destroyed) on 14 May and 11 Jun. 2001. The results are expressed as % of leaves attacked.

These results are taken from US20050019420A1, “Fungicide composition comprising pyrimethanil and at least a phosphorous acid derivative and use thereof for fighting against plant diseases” (priority 2001, published 2005).

The structures appear in SMILES notation.

As to `CCO[PH](=O)O` [fosetyl-AI, monoethyl ester-phosphonate-aluminum], the “persistence of the action of pyrimethanil” value (addition of fosetyl-Al to pyrimethanil, applications every 10 to 13 days compared with weekly applications) was “improve the persistence of the action of pyrimethanil”.
On to `Cc1cc(C)nc(Nc2ccccc2)n1` [Pyrimethanil, pyrimethanil], for which the “% of leaves attacked” value runs as follows: (dose (20), sprayed every 7 days (9 applications), scored 11 June 2001) 27.7%; (dose (20), sprayed every 7 days (9 applications), scored 14 May 2001) 14.7%; (dose (200), sprayed every 10 days (7 applications), scored 11 June 2001) 33%; (dose (200), sprayed every 10 days (7 applications), scored 14 May 2001) 16.2%; (dose (200), sprayed every 13 days (6 applications), scored 11 June 2001) 32%; (dose (200), sprayed every 13 days (6 applications), scored 14 May 2001) 16.3%.
